Measurements taken from patent publication US7189718B2, “Non-nucleoside reverse transcriptase inhibitors” (Roche Palo Alto LLC, priority 2003, dated 2007).

Molecular target: T1, HIV-1 RT (Human immunodeficiency virus type 1 group M subtype B, UniProt P03366)
T1 construct: HIV-1 RT assay was carried out in 96-well Millipore MultiScreen MADVNOB50 plates using purified recombinant enzyme
Test: HIV Reverse Transcriptase Assay: Inhibitor IC50 Determination
Assay type: biochemical
Conditions: purified recombinant enzyme, poly(rA)/oligo(dT)16 template-primer, 4 nM HIV-1 RT, 37° C. for 30 min, 10% DMSO; read-out: RT inhibition IC50
Experimental: HIV Reverse Transcriptase Assay: Inhibitor IC50 Determination
HIV-1 RT assay was carried out in 96-well Millipore MultiScreen MADVNOB50 plates using purified recombinant enzyme and a poly(rA)/oligo(dT)16 template-primer in a total volume of 50 μL. The assay constituents were 50 mM Tris/HCl 50 mM NaCl, 1 mM EDTA, 6 mM MgCl2, 5 μM dTTP, 0.15 μCi [^3H] dTTP, 5 μg/ml poly (rA) pre annealed to 2.5 μg/ml oligo (dT)16 and a range of inhibitor concentrations in a final concentration of 10% DMSO. Reactions were initiated by adding 4 nM HIV-1 RT and after incubation at 37° C. for 30 min, they were stopped by the addition of 50 μl ice cold 20% TCA and allowed to precipitate at 4° C. for 30 min. The precipitates were collected by applying vacuum to the plate and sequentially washing with 3×200 μl of 10% TCA and 2×200 μl 70% ethanol. Finally, the plates were dried and radioactivity counted in a Packard TopCounter after the addition of 25 μl scintillation fluid per well. IC50's, were calculated by plotting % inhibition versus log10 inhibitor concentrations.

Compound	IC50 [µM]
O=c1ccc(Cc2ccc(Cl)c(Oc3cc(Cl)ccc3Br)c2)n[nH]1 [I-77, 6-[3-(2-Bromo-5-chloro-phenoxy)-4-chloro-benzyl]-2H-pyridazin-3-one]	0.0243
CCc1ccc(Cc2cc(C)c(=O)[nH]n2)cc1Oc1cc(Cl)cc(C#N)c1 [I-98, 3-Chloro-5-[2-ethyl-5-(5-methyl-6-oxo-1,6-dihydro-pyridazin-3-ylmethyl)-phenoxy]-benzonitrile]	0.0194
CCc1ccc(Cc2ccc(=O)[nH]n2)cc1Oc1cc(C)cc(C#N)c1 [I-100, 3-[2-Ethyl-5-(6-oxo-1,6-dihydro-ridazin-3-ylmethyl)-phenoxy]-5-methyl-nzonitrile]	0.0241
O=c1ccc(Cc2ccc(Cl)c(Oc3cc(Cl)ccc3Cl)c2)n[nH]1 [I-102, 6-[4-Chloro-3-(2,5-dichloro-phenoxy)-benzyl]-2H-pyridazin-3-one]	0.0206
Cc1cc(Cc2ccc(Cl)c(Oc3cc(Cl)ccc3Br)c2)n[nH]c1=O [I-103, 6-[3-(2-Bromo-5-chloro-phenoxy)-4-chloro-benzyl]-4-methyl-2H-pyridazin-3-one]	0.00935
Cc1cc(Cc2ccc(Cl)c(Oc3cc(Cl)cc(C#N)c3)c2)n[nH]c1=O [I-108, 3-Chloro-5-[2-chloro-5-(5-methyl-6-oxo-1,6-dihydro-pyridazin-3-ylmethyl)-phenoxy]-benzonitrile]	0.0111
CCc1ccc(Cc2cc(C)c(=O)[nH]n2)cc1Oc1cc(C)cc(C#N)c1 [I-109, 3-[2-Ethyl-5-(5-methyl-6-oxo-1,6-dihydro-yridazin-3-ylmethyl)-phenoxy]-5-methyl-benzonitrile]	0.0216
Cc1ccc(Cl)cc1Oc1cc(Cc2cc(C)c(=O)[nH]n2)ccc1Cl [I-123, 6-[4-Chloro-3-(5-chloro-2-methyl-phenoxy)-benzyl]-4-methyl-2H-pyridazin-3-one]	0.0231
Cc1cc(Cc2ccc(Cl)c(Oc3cc(C#N)cc(C#N)c3)c2)n[nH]c1=O [I-135, 5-[2-Chloro-5-(5-methyl-6-oxo-1,6-dihydro-pyridazin-3-ylmethyl)-phenoxy]-isophthalonitrile]	0.0125
O=c1ccc(Cc2ccc(Cl)c(Oc3cc(Cl)ccc3Br)c2F)n[nH]1 [I-136, 6-[3-(2-Bromo-5-chloro-phenoxy)-4-chloro-2-fluoro-benzyl]-2H-pyridazin-3-one]	0.008
O=c1ccc(Cc2cc(Oc3cc(Br)cc(Br)c3)c3occc3c2)n[nH]1 [I-142, 6-[7-(3,5-Dibromo-phenoxy)-benzofuran-5-ylmethyl]-2H-pyridazin-3-one]	0.015
CCc1ccc(Cc2ccc(=O)[nH]n2)c(F)c1Oc1cc(Cl)cc(C#N)c1 [I-224, 3-Chloro-5-[6-ethyl-2-fluoro-3-(6-oxo-1,6-dihydro-pyridazin-3-ylmethyl)-phenoxy]-benzonitrile]	0.018
Cc1cc(Cc2ccc(Cl)c(Oc3cc(C#N)cc(C(F)F)c3)c2F)n[nH]c1=O [I-237, 3-[6-Chloro-2-fluoro-3-(5-methyl-6-oxo-1,6-dihydro-pyridazin-3-ylmethyl)-phenoxy]-5-difluoromethyl-benzonitrile]	0.0128
